The subject of test [1] is Symmetric di-methyl arginine in Z-138 cells. In words: Z-138 methylation assay, ELISA for detection of symmetric di-methyl arginine. It counts as cell-based. Conditions: Homo sapiens. As to the method:
General reagents. […] Iscove's Modified Dulbecco's Medium (IMDM), Horse serum, penicillin-streptomycin, PBS and TMB-ELISA substrate solution were purchased from ThermoFisher Scientific. Symmetric di-methyl arginine antibody was purchased from Cell Signaling Technologies.Anti-SNRPD3/SmD3 antibody was purchased from Sigma-Aldrich.
ELISA for detection of Symmetric di-methyl arginine. […] A compound source plate was prepared by performing ten-point 3-fold dilution in DMSO, such that the final top concentration of the compound was 10 μM, and DMSO was 0.3%. The total volume of compounds added was 20 μL. The cells were incubated for 96 h at 37° C., 5% CO2. Z-138 cells were directly lysed in media with 3× Lysis Buffer (1×: 10 mM HEPES pH7.9, 5 mM MgCl2, 1M NaCl, 0.25M Sucrose, 1% Triton X-100, 1 mM PMSF, Protease & Phosphatase inhibitors). […] Plates were incubated at room temperature for a minimum of 3 h and then washed with PBS-Tween 20 (0.05%). The plates were blocked with 5% BSA at room temperature for 1 h, washed with PBS-Tween 20 and incubated with primary antibody at 4 C overnight.
(ELISA stands for enzyme-linked immunosorbent assay.)

The test system of the next test is Z-138 cells. In words: Z-138 long term proliferation assay (Cell Titer Glo). The test is classed as cell-based. The settings on record: Homo sapiens; for GI50: 192 h, Z-138 cells, cell viability, day 8, read-out: PRMT5 Z138 GI50 Day 8 μM; for IC50: Z-138, 192 h, summary of Table 1, read-out: IC50 value (all the three assays): Z138 GI50 Day 8. In a few lines:
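Z-138 cells exposed to ten-point 3-fold dilutions (top 10 μM, 0.3% DMSO) for 96 h at 37° C., 5% CO2, then re-dosed for four more days.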
Background: Cellular ATP, detected with luciferase, serves as a proxy for viable cell number.

A further test has as its target T1, PRMT5/MEP50 (Homo sapiens, UniProt O14744).
T1 construct: Full-length human PRMT5 (NP_006100)
In words: PRMT5/MEP50 enzyme assay on peptide substrates (3H-SAM Flashplate). The test is classed as biochemical. Conditions: PRMT5/MEP50 10 nM, H4 1-15aa peptide 100 nM, 3H-SAM 1 μM.

Setting [2] is: Z-138 cells, 96 h (day 4), read-out: PRMT5 Z138 SDMA ELISA Day 4 μM.
[3] abbreviates: Z-138, 96 h, summary of Table 1, read-out: IC50 value (all the three assays): Z138 SDMA ELISA Day 4.

Like-named read-outs stand apart in the source and are kept apart here.

Broadly, the GI50 is the concentration giving 50% growth inhibition.

T1 sequence (O14744 whole entry): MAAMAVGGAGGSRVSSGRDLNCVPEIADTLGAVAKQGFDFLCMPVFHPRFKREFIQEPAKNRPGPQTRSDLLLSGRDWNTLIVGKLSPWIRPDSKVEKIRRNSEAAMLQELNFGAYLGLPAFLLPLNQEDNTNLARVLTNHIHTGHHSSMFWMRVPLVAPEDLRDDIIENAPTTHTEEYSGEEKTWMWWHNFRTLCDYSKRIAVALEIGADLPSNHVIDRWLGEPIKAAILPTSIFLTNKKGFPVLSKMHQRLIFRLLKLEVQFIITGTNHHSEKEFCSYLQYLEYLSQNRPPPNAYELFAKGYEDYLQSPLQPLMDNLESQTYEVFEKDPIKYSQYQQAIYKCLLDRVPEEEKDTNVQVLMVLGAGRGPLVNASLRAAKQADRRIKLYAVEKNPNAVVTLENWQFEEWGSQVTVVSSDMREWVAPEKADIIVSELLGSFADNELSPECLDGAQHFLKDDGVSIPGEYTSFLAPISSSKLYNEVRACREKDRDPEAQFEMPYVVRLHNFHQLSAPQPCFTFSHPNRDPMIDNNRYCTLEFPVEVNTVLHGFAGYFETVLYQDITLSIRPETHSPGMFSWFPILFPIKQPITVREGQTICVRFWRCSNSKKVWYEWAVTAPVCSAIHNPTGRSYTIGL
T1 sequence (Q9BQA1 whole entry partner): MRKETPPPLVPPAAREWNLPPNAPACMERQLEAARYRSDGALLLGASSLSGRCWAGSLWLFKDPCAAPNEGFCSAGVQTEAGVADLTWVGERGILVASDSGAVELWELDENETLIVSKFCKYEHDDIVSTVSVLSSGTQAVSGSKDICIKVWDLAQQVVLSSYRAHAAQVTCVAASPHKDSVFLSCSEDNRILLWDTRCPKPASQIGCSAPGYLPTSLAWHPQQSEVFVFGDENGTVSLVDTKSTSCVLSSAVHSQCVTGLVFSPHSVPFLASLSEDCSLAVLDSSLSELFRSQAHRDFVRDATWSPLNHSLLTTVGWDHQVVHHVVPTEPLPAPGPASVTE

Regarding `O=C(NC[C@H](O)CN1CCc2ccccc2C1)c1cn2cc(C(F)(F)F)cnc2n1` [Example 42], the IC50 (in test [1] (setting [2]); against PRMT5/MEP50) was 10 to 1000 nM throughout. Further, the GI50 in the test on Z-138 cells is 1000 to 5000 nM.
`Cn1cc(-c2cnc3nc(C(=O)NC[C@H](O)CN4CCc5ccccc5C4)cn3c2)cn1` [Example 43, (S)—N-(3-(3,4-dihydroisoquinolin-2(1H)-yl)-2-hydroxypropyl)-6-(1-methyl-1H-pyrazol-4-yl)imidazo[1,2-a]pyrimidine-2-carboxamide]: the IC50 in test [1] (setting [2]) was 10 to 1000 nM; on PRMT5/MEP50, over 5000 nM. Besides, in the test with Z-138 cells, the GI50 was over 5000 nM.
As to `Cn1cc(-c2cn3cc(C(=O)NC[C@H](O)CN4CCc5ccccc5C4)nc3cn2)cn1` [Example 45, (S)—N-(3-(3,4-dihydroisoquinolin-2(1H)-yl)-2-hydroxypropyl)-6-(1-methyl-1H-pyrazol-4-yl)imidazo[1,2-a]pyrazine-2-carboxamide], the IC50 (in test [1] (setting [3]); in test [1] (setting [2]); in the test with Z-138 cells; at PRMT5/MEP50) was 10 to 1000 nM each time. The GI50 with Z-138 cells is 10 to 1000 nM.
For the molecule `Cn1ccc(-c2cn3cc(C(=O)NC[C@H](O)CN4CCc5ccccc5C4)nc3cn2)cc1=O` [Example 47, (S)—N-(3-(3,4-dihydroisoquinolin-2(1H)-yl)-2-hydroxypropyl)-6-(1-methyl-2-oxo-1,2-dihydropyridin-4-yl)imidazo[1,2-a]pyrazine-2-carboxamide], the IC50 (in test [1] (setting [3]); in test [1] (setting [2]); with Z-138 cells; at PRMT5/MEP50) was 10 to 1000 nM in each case. In the test on Z-138 cells, the GI50 fell in the range of 10 to 1000 nM.
As to `Cn1ccc(-c2ccc3nc(C(=O)NC[C@H](O)CN4CCc5ccccc5C4)cn3n2)cc1=O` [Example 48, (S)—N-(3-(3,4-dihydroisoquinolin-2(1H)-yl)-2-hydroxypropyl)-6-(1-methyl-2-oxo-1,2-dihydropyridin-4-yl)imidazo[1,2-b]pyridazine-2-carboxamide], the IC50 (in test [1] (setting [3]); in test [1] (setting [2]); in the test with Z-138 cells; at PRMT5/MEP50) was 10 to 1000 nM throughout. For the same molecule, the GI50 in the test with Z-138 cells lay within 10 to 1000 nM.
`O=C(NC[C@H](O)CN1CCc2ccccc2C1)c1cn2cc(N3CCC3)ccc2n1` [Example 69, (S)-6-(azetidin-1-yl)-N-(3-(3,4-dihydroisoquinolin-2(1H)-yl)-2-hydroxypropyl)imidazo[1,2-a]pyridine-2-carboxamide]: the IC50 (in test [1] (setting [2]); at PRMT5/MEP50) was 10 to 1000 nM throughout. In the test on Z-138 cells, the GI50 lay in the range of 1000 to 5000 nM.
Regarding `O=C(NC[C@H](O)CN1CCc2ccccc2C1)c1cn2cc(N3CCC(F)C3)ncc2n1` (stereo partly drawn) [Example 73, N—((S)-3-(3,4-dihydroisoquinolin-2(1H)-yl)-2-hydroxypropyl)-6-(3-fluoropyrrolidin-1-yl)imidazo[1,2-a]pyrazine-2-carboxamide], the IC50 in test [1] (setting [2]) lay within 10 to 1000 nM; against PRMT5/MEP50, 1000 to 5000 nM. In the test on Z-138 cells, the GI50 lay in the range of 1000 to 5000 nM.
On to `CN(C[C@H](O)CN1CCc2ccccc2C1)C(=O)c1cn2cc(-c3ccn(C)c(=O)c3)ncc2n1` [Example 93, (R)—N-(3-(3,4-dihydroisoquinolin-2(1H)-yl)-2-hydroxypropyl)-N-methyl-6-(1-methyl-2-oxo-1,2-dihydropyridin-4-yl)imidazo[1,2-a]pyrazine-2-carboxamide], for which the IC50 (in test [1] (setting [2]); on PRMT5/MEP50) was 10 to 1000 nM throughout. In the test with Z-138 cells, the GI50 fell in the range of 1000 to 5000 nM.
For the molecule `O=C(NCC(O)CNC1Cc2ccccc2C1)c1cn2cc(C(F)(F)F)ccc2n1` (centres unmarked) [Example 96], the IC50 (in test [1] (setting [3]); in test [1] (setting [2]); in the test on Z-138 cells; at PRMT5/MEP50) was 10 to 1000 nM in each case. Besides, the GI50 with Z-138 cells is 10 to 1000 nM.
For `O=C(NC(CO)CCN1CCc2ccccc2C1)c1cn2cc(C(F)(F)F)ccc2n1` (centres unmarked) [Example 100, N-(4-(3,4-dihydroisoquinolin-2(1H)-yl)-1-hydroxybutan-2-yl)-6-(trifluoromethyl)imidazo[1,2-a]pyridine-2-carboxamide], the IC50 is 10 to 1000 nM in test [1] (setting [2]) and 1000 to 5000 nM on PRMT5/MEP50. Besides, the GI50 with Z-138 cells lay within 1000 to 5000 nM.
As for `CC1CCc2nc(C(=O)NCC(O)CN3CCc4ccccc4C3)cn2C1` (centres unmarked) [Example 102, N-(3-(3,4-dihydroisoquinolin-2(1H)-yl)-2-hydroxypropyl)-6-methyl-5,6,7,8-tetrahydroimidazo[1,2-a]pyridine-2-carboxamide], the IC50 in test [1] (setting [2]) lay in the range of 10 to 1000 nM; against PRMT5/MEP50, 1000 to 5000 nM. Also, the GI50 in the test on Z-138 cells was 10 to 1000 nM.
As to `CC1CCn2cc(C(=O)NCC(O)CN3CCc4ccccc4C3)nc2C1` (centres unmarked) [Example 103, N-(3-(3,4-dihydroisoquinolin-2(1H)-yl)-2-hydroxypropyl)-7-methyl-5,6,7,8-tetrahydroimidazo[1,2-a]pyridine-2-carboxamide], the IC50 in test [1] (setting [2]) was in the range of 10 to 1000 nM; at PRMT5/MEP50, 1000 to 5000 nM. The 50% growth inhibitory concentration (GI50) with Z-138 cells lay in the range of 10 to 1000 nM.
For `CCCC1CCc2nc(C(=O)NCC(O)CN3CCc4ccccc4C3)cn2C1` (centres unmarked) [Example 106, N-(3-(3,4-dihydroisoquinolin-2(1H)-yl)-2-hydroxypropyl)-6-propyl-5,6,7,8-tetrahydroimidazo[1,2-a]pyridine-2-carboxamide], the IC50 (in test [1] (setting [2]); against PRMT5/MEP50) was 10 to 1000 nM each time. In the test with Z-138 cells, the GI50 was in the range of 1000 to 5000 nM.
Consider `CO[C@@H]1CCc2nc(C(=O)NC[C@H](O)CN3CCc4ccccc4C3)cn2C1` [Example 107A, (R)—N—((S)-3-(3,4-dihydroisoquinolin-2(1H)-yl)-2-hydroxypropyl)-6-methoxy-5,6,7,8-tetrahydroimidazo[1,2-a]pyridine-2-carboxamide], for which the IC50 in test [1] (setting [2]) was 10 to 1000 nM; at PRMT5/MEP50 it was over 5000 nM. In the test with Z-138 cells, the GI50 is 1000 to 5000 nM.
The corresponding values for `CC(C)C1CCc2nc(C(=O)NC[C@H](O)CN3CCc4ccccc4C3)cn2C1` (stereo partly drawn) [Example 108, N—((S)-3-(3,4-dihydroisoquinolin-2(1H)-yl)-2-hydroxypropyl)-6-isopropyl-5,6,7,8-tetrahydroimidazo[1,2-a]pyridine-2-carboxamide] are 10 to 1000 nM, 1000 to 5000 nM and 10 to 1000 nM.
For the molecule `O=C(NCC(O)CN1CCc2ccccc2C1)c1cn2c(n1)CC(c1ccccc1)CC2` (centres unmarked) [Example 109, N-(3-(3,4-dihydroisoquinolin-2(1H)-yl)-2-hydroxypropyl)-7-phenyl-5,6,7,8-tetrahydroimidazo[1,2-a]pyridine-2-carboxamide], the results for the IC50 (in test [1] (setting [2]); on PRMT5/MEP50) were 10 to 1000 nM and 1000 to 5000 nM, respectively. Further, the GI50 in the test on Z-138 cells was over 5000 nM.
The corresponding values for `O=C(NCC(O)CN1CCc2ccccc2C1)c1cn2c(n1)CCC(c1ccccc1)C2` (centres unmarked) [Example 110, N-(3-(3,4-dihydroisoquinolin-2(1H)-yl)-2-hydroxypropyl)-6-phenyl-5,6,7,8-tetrahydroimidazo[1,2-a]pyridine-2-carboxamide] are 10 to 1000 nM, 1000 to 5000 nM and 1000 to 5000 nM.
The corresponding values for `Cn1cc(C2CCc3nc(C(=O)NCC(O)CN4CCc5ccccc5C4)cn3C2)cn1` (centres unmarked) [Example 111, N-(3-(3,4-dihydroisoquinolin-2(1H)-yl)-2-hydroxypropyl)-6-(1-methyl-1H-pyrazol-4-yl)-5,6,7,8-tetrahydroimidazo[1,2-a]pyridine-2-carboxamide] are 10 to 1000 nM, 1000 to 5000 nM and 1000 to 5000 nM.
The corresponding values for `O=C(NC[C@H](O)CN1CCc2ccccc2C1)c1cn2c(n1)COC(c1ccccc1)C2` (stereo partly drawn) [Example 112, N—((S)-3-(3,4-dihydroisoquinolin-2(1H)-yl)-2-hydroxypropyl)-6-phenyl-5,6-dihydro-8H-imidazo[2,1-c][1,4]oxazine-2-carboxamide] are 10 to 1000 nM, 1000 to 5000 nM and 1000 to 5000 nM.
In the case of `CC(C)N1CCn2cc(C(=O)NCC(O)CN3CCc4ccccc4C3)nc2C1` (centres unmarked) [Example 113, N-(3-(3,4-dihydroisoquinolin-2(1H)-yl)-2-hydroxypropyl)-7-isopropyl-5,6,7,8-tetrahydroimidazo [1,2-a] pyrazine-2-carboxamide], the values for the IC50 (in test [1] (setting [2]); against PRMT5/MEP50) were 1000 to 5000 nM and over 5000 nM, respectively. The GI50 with Z-138 cells was over 5000 nM.
Regarding `O=C(NC[C@H](O)CN1CCc2ccccc2C1)c1cn2c(n1)CCC(C(F)(F)F)C2` (stereo partly drawn) [Example 114, N—((S)-3-(3,4-dihydroisoquinolin-2(1H)-yl)-2-hydroxypropyl)-6-(trifluoromethyl)-5,6,7,8-tetrahydroimidazo[1,2-a]pyridine-2-carboxamide], the IC50 in test [1] (setting [2]) lay in the range of 10 to 1000 nM; against PRMT5/MEP50, 1000 to 5000 nM. For the same molecule, the GI50 in the test with Z-138 cells lay within 10 to 1000 nM.

These data come from patent publication US11459338B2, “Heterocyclic compounds as PRMT5 inhibitors” (JUBILANT EPISCRIBE LLC, priority 2018, dated 2022).
